Consider 20 molecules from BindingDB's records for patent US20230357253 (The Scripps Research Institute, 2023).

This assay addresses Stimulator of interferon genes protein (Homo sapiens, UniProt Q86WV6). Nature of the assay: WT STING Binding Assay. Here is the method:
Upon proximity of the two dyes, the excitation of the donor by the flash lamp on the PHERAstar FSX plate reader triggers a Fluorescence Resonance Energy Transfer (FRET) towards the acceptor, which in turn fluoresces at 665 nm. To assess the ability of the synthetic small molecule STING ligands to bind to human STING, a competitive assay format was applied. A 10-point titration of each of the synthetic ligands in 5 uL were transferred into a 384 well plate, followed by 20 uL of assay buffer containing the 6×His-tagged human STING protein and labeled 2′3′cGAMP ligand and incubated for three hours at room temperature. The raw values obtained from the PHERAstar were used to calculate the reported IC50 values (the signal is inversely proportional to the binding of the synthetic ligand) through curve fitting in Genedata. The percent inhibition was calculated based upon the maximal amount of binding by synthetic compound versus the maximum binding of unlabeled 2′3′ cGAMP which was used as a control in each assay.

Stimulator of interferon genes protein, sequence (Q86WV6 whole entry): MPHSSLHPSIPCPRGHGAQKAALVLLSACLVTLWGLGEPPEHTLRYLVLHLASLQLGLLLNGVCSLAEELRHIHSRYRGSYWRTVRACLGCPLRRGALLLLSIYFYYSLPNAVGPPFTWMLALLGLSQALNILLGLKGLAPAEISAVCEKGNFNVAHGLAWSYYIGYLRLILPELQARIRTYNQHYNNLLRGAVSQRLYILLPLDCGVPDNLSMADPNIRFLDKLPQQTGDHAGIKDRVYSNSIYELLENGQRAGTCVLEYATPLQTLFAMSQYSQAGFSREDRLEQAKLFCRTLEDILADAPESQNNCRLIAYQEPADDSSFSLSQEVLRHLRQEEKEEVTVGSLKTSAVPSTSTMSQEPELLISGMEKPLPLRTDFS

The molecule `O=C(Nc1cc(CCCc2cc(NC(=O)c3ccc(-n4ccnc4)nn3)c(C(=O)O)cc2F)c(F)cc1C(=O)O)c1ccc(-n2ccnc2)nn1` [US20230357253, Compound 3] had an IC50 of less than 10 nM.
The molecule `O=C(Nc1cc(CCOc2cc(NC(=O)c3ccc(-c4cn[nH]c4)nn3)c(C(=O)O)cc2F)c(F)cc1C(=O)O)c1ccc(-c2cn[nH]c2)nn1` [US20230357253, Compound 4] returned an IC50 of less than 10 nM.
Regarding `CC(CCOc1cc(NC(=O)c2ccc(-n3ccnc3)nn2)c(C(=O)O)cc1F)Oc1cc(NC(=O)c2ccc(-n3ccnc3)nn2)c(C(=O)O)cc1F` (stereo not given) [US20230357253, Compound 5], the half-maximal inhibitory concentration (IC50) is less than 10 nM.
For the molecule `COc1cc(C(=O)O)c(NC(=O)c2ccc(-n3ccnc3)nn2)cc1OCCc1cc(C(=O)O)c(NC(=O)c2ccc3nnnn3n2)cc1Cl` [US20230357253, Compound 6], the IC50 was less than 10 nM.
Take `O=C(Nc1cc(OCCCOc2cc(C(=O)O)c(NC(=O)c3ccc(-n4ccnc4)nn3)cc2F)c(F)cc1C(=O)O)c1ccc(-n2ccnc2)nn1` [US20230357253, Compound 10]: the IC50 is less than 10 nM.
With `O=C(Nc1cc(CCCc2ccc(NC(=O)c3ccc4nnnn4n3)c(C(=O)O)c2)ccc1C(=O)O)c1ccc2nnnn2n1` [US20230357253, Compound 13], the IC50 was more than 1000 nM.
For the molecule `O=C(Nc1cc(CCCc2ccc(C(=O)O)c(NC(=O)c3ccc4nnnn4n3)c2)ccc1C(=O)O)c1ccc2nnnn2n1` [US20230357253, Compound 14], the IC50 was more than 1000 nM.
For `O=C(Nc1cc(OCCCCOc2cc(NC(=O)c3ccc(-n4ccnc4)nn3)c(C(=O)O)cc2F)ccc1C(=O)O)c1ccc(-n2ccnc2)nn1` [US20230357253, Compound 19], the IC50 was less than 10 nM.
The value for `COc1cc(C(=O)O)c(NC(=O)c2ccc(-n3ccnc3)nn2)cc1OCCCCOc1cc(NC(=O)c2ccc(-n3ccnc3)nn2)c(C(=O)O)cc1OC` [US20230357253, Compound 21] was more than 1000 nM; that for `O=C(Nc1cc(OCCCOc2ccc(NC(=O)c3ccc4nnnn4n3)c(C(=O)O)c2)ccc1C(=O)O)c1ccc2nnnn2n1` [US20230357253, Compound 25] was more than 1000 nM; that for `O=C(Nc1cc(OCCOc2cc(C(=O)O)c(NC(=O)c3ccc4nnnn4n3)cc2F)ccc1C(=O)O)c1ccc2nnnn2n1` [US20230357253, Compound 26] was more than 1000 nM.
To `O=C(Nc1cc(OCCCCOc2ccc(NC(=O)c3ccc4nnnn4n3)c(C(=O)O)c2)ccc1C(=O)O)c1ccc2nnnn2n1` [US20230357253, Compound 27] belongs more than 1000 nM; to `O=C(Nc1cc(OCCCOc2ccc(C(=O)O)c(NC(=O)c3ccc4nnnn4n3)c2)ccc1C(=O)O)c1ccc2nnnn2n1` [US20230357253, Compound 28], more than 1000 nM.
To `O=C(Nc1cc(CCc2ccc(C(=O)O)c(NC(=O)c3ccc4nnnn4n3)c2)ccc1C(=O)O)c1ccc2nnnn2n1` [US20230357253, Compound 29] belongs more than 1000 nM.
In turn, `O=C(Nc1cc(OCCCCCOc2ccc(C(=O)O)c(NC(=O)c3ccc4nnnn4n3)c2)ccc1C(=O)O)c1ccc2nnnn2n1` [US20230357253, Compound 30] showed an IC50 of more than 1000 nM.
Regarding `O=C(Nc1cc(OCCOc2ccc(NC(=O)c3ccc4nnnn4n3)c(C(=O)O)c2)ccc1C(=O)O)c1ccc2nnnn2n1` [US20230357253, Compound 31], the IC50 was more than 1000 nM.
As to `O=C(Nc1cc(OCCCCOc2ccc(C(=O)O)c(NC(=O)c3ccc4nnnn4n3)c2)ccc1C(=O)O)c1ccc2nnnn2n1` [US20230357253, Compound 32], the IC50 was more than 1000 nM.
With `O=C(Nc1cc(OCCCOc2cc(C(=O)O)c(NC(=O)c3ccc4nnnn4n3)cc2F)c(F)cc1C(=O)O)c1ccc2nnnn2n1` [US20230357253, Compound 33], the IC50 was more than 1000 nM.
Take `O=C(Nc1cc(OCCCCOc2ccc(C(=O)O)c(NC(=O)c3ccc(-n4ccnc4)nn3)c2)ccc1C(=O)O)c1ccc(O)nn1` [US20230357253, Compound 35]: the IC50 was more than 1000 nM.
In turn, `COC(=O)c1ccc(OCCCCOc2ccc(C(=O)O)c(NC(=O)c3ccc(-n4ccnc4)nn3)c2)cc1NC(=O)c1ccc2nnnn2n1` [US20230357253, Compound 37] had a 50% inhibitory concentration (IC50) of more than 1000 nM.

As a reminder, the IC50 is the point on the concentration scale where inhibition reaches its midpoint.
